Measurements: PubChem BioAssay AID513 (SGCOxCompounds, 2006)

Biological target: Casein kinase I isoform gamma-1 (Homo sapiens) (UniProt Q9HCP0)
Assay: ligand binding to human CK1 gamma-1 kinase – biophysical, DSF, SYPRO orange, recombinant protein (AID 513)
Conditions: recombinant CSNK1G1, DSF thermal shift, at 10 µM, protein 2 µM, hits give high values

Sequence of Casein kinase I isoform gamma-1 (Homo sapiens) (Q9HCP0 whole entry, looked up, canonical isoform): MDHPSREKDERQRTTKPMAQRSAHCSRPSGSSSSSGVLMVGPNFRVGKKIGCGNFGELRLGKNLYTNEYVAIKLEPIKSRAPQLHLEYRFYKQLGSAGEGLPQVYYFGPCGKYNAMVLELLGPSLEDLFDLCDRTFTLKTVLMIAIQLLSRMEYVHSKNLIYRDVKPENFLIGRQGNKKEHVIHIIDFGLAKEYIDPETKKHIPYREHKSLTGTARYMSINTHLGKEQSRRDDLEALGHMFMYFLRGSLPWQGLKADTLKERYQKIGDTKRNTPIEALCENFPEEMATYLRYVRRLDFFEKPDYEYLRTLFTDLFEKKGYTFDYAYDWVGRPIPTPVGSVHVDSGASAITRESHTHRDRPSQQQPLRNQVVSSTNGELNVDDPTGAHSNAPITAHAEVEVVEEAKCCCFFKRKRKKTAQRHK

| SMILES | Tm shift |
| --- | --- |
| Oc1ccc(Nc2nccn3c(-c4cn[nH]c4)cnc23)cc1 | 3.2 Celsius |
| O=Nc1c(-c2c(O)[nH]c3cc(Br)ccc23)[nH]c2ccccc12 | 3.5 Celsius |
| CSc1nc(-c2ccnc(NC(C)c3ccccc3)c2)c(-c2ccc(F)cc2)[nH]1 (configuration not stated) | 3.6 Celsius |
| Nc1nc(Nc2cccc(Cl)c2)sc1C(=O)c1ccc(F)cc1 | 5.3 Celsius |
| O=c1[nH]c(O)c2c1c1c3ccccc3nc1n1cncc21 | 4.3 Celsius |
| NC(=O)c1ccc(-c2nc(-c3ccc4c(c3)OCCO4)c(-c3ccccn3)[nH]2)cc1 | 6.1 Celsius |
| Clc1ccc(Nc2ncc(-c3cn[nH]c3)n3ccnc23)cc1 | 3.6 Celsius |
| Nc1nc(Nc2ccc(F)cc2)sc1C(=O)c1ccccc1 | 4.1 Celsius |
| O=Nc1c(-c2c(O)[nH]c3ccc(S(O)(O)O)cc23)[nH]c2ccccc12 | 4 Celsius |
| CCn1cnc2c(Nc3cccc(Cl)c3)nc(N[C@@H]3CCCC[C@@H]3N)nc21 | 5.8 Celsius |
| NC1=N/C(=C2/CCNC(=O)c3[nH]c(Br)cc32)C(=O)N1 | 5.7 Celsius |
| COc1ccc(Nc2nc(N)c(C(=O)c3ccc(OC)cc3)s2)cc1 | 5.6 Celsius |
| CCN(CC)CCNC(=O)c1c(C)[nH]c(/C=C2\C(=O)Nc3ccc(Cl)cc32)c1C | 4.3 Celsius |
| O=c1c(O)c(-c2ccc(O)c(O)c2)oc2cc(O)cc(O)c12 | 3.2 Celsius |
| COc1cc(/C=C/C(=O)CC(=O)/C=C/c2ccc(O)c(OC)c2)ccc1O | 4.5 Celsius |
| NC1=N/C(=C2\CCNC(=O)c3[nH]ccc32)C(=O)N1 | 3.6 Celsius |
| CC(C)n1cnc2c(Nc3cccc(Cl)c3)nc(NCCO)nc21 | 6.1 Celsius |
| Nc1nc(Nc2ccccc2F)sc1C(=O)c1ccc(Br)cc1 | 3.9 Celsius |
| N#C/C(=C1\Nc2ccccc2S1)c1ccnc(NCCc2cccnc2)n1 | 3.7 Celsius |
| Cc1cc(Nc2nc(-c3ccccc3)nc3ccccc23)n[nH]1 | 3.3 Celsius |
| Nc1nc(Nc2ccccc2)sc1C(=O)c1ccc(F)cc1 | 3.9 Celsius |
| COc1ccc(Nc2nc(N)c(C(=O)c3ccc(Cl)cc3)s2)cc1 | 4.1 Celsius |
